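Compound exposure: 48 hours, 5 concentrations, 96-well plates. The concentration for 50% growth inhibition is given as GI50.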 Calls of active or inactive are those of the source. No stated cut-off is given here; in the data, active = GI50 up to about 1.1 µM and inactive = higher.
Columns and labels:
Experiment in all cases: NCI-60 cell line screen, 48 h
[1] = tested on: SNB-75
[2] = tested on: HL-60
[3] = tested on: HCC 2998
[4] = tested on: LOX IMVI
[5] = tested on: Hs-578T
[6] = tested on: PC-3
[7] = tested on: MCF7
[8] = tested on: BT-549
[9] = tested on: HT-29
[10] = tested on: MDA-MB-231
[11] = tested on: NCI-H23
[12] = tested on: SK-MEL-2
[13] = tested on: SN12C
[14] = tested on: SK-OV-3
[15] = tested on: SK-MEL-28
[16] = tested on: OVCAR-3
[17] = tested on: K562
[18] = tested on: TK-10

| SMILES | GI50 [1] | GI50 [2] | GI50 [3] | GI50 [4] | GI50 [5] | GI50 [6] | GI50 [7] | GI50 [8] | GI50 [9] | GI50 [10] | GI50 [11] | GI50 [12] | GI50 [13] | GI50 [14] | GI50 [15] | GI50 [16] | GI50 [17] | GI50 [18] |
| --- | --- | --- | --- | --- | --- | --- | --- | --- | --- | --- | --- | --- | --- | --- | --- | --- | --- | --- |
| O=C1C[C@H](COCc2ccccc2)NC(=O)C[C@H](COCc2ccccc2)NC(=O)C[C@H](COCc2ccccc2)N1 | 2.55 µM (inactive) | 92.7 µM (inactive) | > 100 µM (inactive) | > 100 µM (inactive) | 39.9 µM (inactive) | > 100 µM (inactive) | > 100 µM (inactive) | 41.6 µM (inactive) | > 100 µM (inactive) | 26.7 µM (inactive) | 55.3 µM (inactive) | 28.2 µM (inactive) | > 100 µM (inactive) | 19.5 µM (inactive) | > 100 µM (inactive) | 80.5 µM (inactive) | 3.52 µM (inactive) | 18.1 µM (inactive) |
| COc1ccc(NC(=O)CC(=O)N2N=C(c3ccccc3)C(/N=N/c3ccc(S(=O)(=O)CCOS(=O)(=O)O)cc3)C2=O)cc1 (stereo unspecified) | > 100 µM (inactive) | > 100 µM (inactive) | > 100 µM (inactive) | > 100 µM (inactive) | > 100 µM (inactive) | > 100 µM (inactive) | > 100 µM (inactive) | > 100 µM (inactive) | > 100 µM (inactive) | > 100 µM (inactive) | > 100 µM (inactive) | > 100 µM (inactive) | > 100 µM (inactive) | > 100 µM (inactive) | > 100 µM (inactive) | > 100 µM (inactive) | > 100 µM (inactive) | > 100 µM (inactive) |
| C=C1c2ccccc2Oc2nc3nc(N)c(C#N)c(N)c3c(N)c21 | 24.5 µM (inactive) | 21.6 µM (inactive) | 19.5 µM (inactive) | 24.5 µM (inactive) | 21.9 µM (inactive) | 19.3 µM (inactive) | 14.6 µM (inactive) | 39.9 µM (inactive) | 23.1 µM (inactive) | 47.6 µM (inactive) | 18 µM (inactive) | 17.8 µM (inactive) | 37.6 µM (inactive) | 24.1 µM (inactive) | 41.8 µM (inactive) | 16.6 µM (inactive) | 40.7 µM (inactive) | 39.1 µM (inactive) |
| CSCCCNC(=O)c1csc([C@@H](CSC)NC(=O)CCNC(=O)[C@@H](NC(=O)OCC(Br)(Br)Br)C(C)O)n1 (stereo partly specified) | > 100 µM (inactive) | > 100 µM (inactive) | > 100 µM (inactive) | > 100 µM (inactive) | > 100 µM (inactive) | > 100 µM (inactive) | 94.2 µM (inactive) | > 100 µM (inactive) | > 100 µM (inactive) | > 100 µM (inactive) | > 100 µM (inactive) | > 100 µM (inactive) | > 100 µM (inactive) | > 100 µM (inactive) | > 100 µM (inactive) | > 100 µM (inactive) | > 100 µM (inactive) | > 100 µM (inactive) |
| c1ccc(-c2nnn(CCN3CCCCC3)n2)cc1 | > 100 µM (inactive) | > 100 µM (inactive) | > 100 µM (inactive) | > 100 µM (inactive) | > 100 µM (inactive) | > 100 µM (inactive) | > 100 µM (inactive) | > 100 µM (inactive) | > 100 µM (inactive) | > 100 µM (inactive) | > 100 µM (inactive) | > 100 µM (inactive) | > 100 µM (inactive) | > 100 µM (inactive) | > 100 µM (inactive) | > 100 µM (inactive) | > 100 µM (inactive) | > 100 µM (inactive) |
| CN(C)c1ccc(/C=C2\C[C@H]3[C@@H]4CC=C5C[C@@H](N6CCCC6)CC[C@]5(C)[C@H]4CC[C@]3(C)[C@H]2O)cc1 | 0.959 µM (active) | 1.15 µM (inactive) | 0.91 µM (active) | 0.787 µM (active) | 0.883 µM (active) | 2.18 µM (inactive) | 2.96 µM (inactive) | 3.18 µM (inactive) | 1.1 µM (active) | 0.973 µM (active) | 3.66 µM (inactive) | 1.07 µM (active) | 1.22 µM (inactive) | 4.39 µM (inactive) | 0.977 µM (active) | 1.15 µM (inactive) | 1.21 µM (inactive) | 1.24 µM (inactive) |
| Cc1cc(C)nc(NS(=O)(=O)c2ccc(Nc3c4ccccc4nc4c(C(=O)NCCO)cccc34)cc2)n1 | 3.27 µM (inactive) | 31.8 µM (inactive) | 10.4 µM (inactive) | 10.6 µM (inactive) | 53.1 µM (inactive) | 23.2 µM (inactive) | 18 µM (inactive) | 17.6 µM (inactive) | 13.1 µM (inactive) | 12.4 µM (inactive) | 23.8 µM (inactive) | 11.8 µM (inactive) | 15 µM (inactive) | 44.9 µM (inactive) | 19.6 µM (inactive) | 19.8 µM (inactive) | 12.4 µM (inactive) |  |
| Cc1ccc(C(=O)O)c(/C=C2\Cc3cc(C)cc(C)c3C2=O)c1 | 63.5 µM (inactive) | 38.6 µM (inactive) | 70.1 µM (inactive) | 72.3 µM (inactive) | 93.8 µM (inactive) | 48.6 µM (inactive) | 69.3 µM (inactive) | > 100 µM (inactive) | > 100 µM (inactive) | 41.3 µM (inactive) |  | > 100 µM (inactive) | 49.4 µM (inactive) |  | > 100 µM (inactive) | 36 µM (inactive) | 52.4 µM (inactive) | > 100 µM (inactive) |

From ChEMBL document CHEMBL1201862, “PubChem BioAssay data set” (2004)
